Test results from patent US9247759B2, “Identification of human T2R receptors that respond to bitter compounds that elicit the bitter taste in compositions, and the use thereof in assays to identify compounds that inhibit (block) bitter taste in compositions and use thereof” (SENOMYX, INC., priority 2007, dated 2016).
Like-named read-outs stand apart in the source and are kept apart here.

Columns and labels:
hT2R61 = hT2R61 (Homo sapiens (Human), UniProt P59537); assay: hT2R panel inhibition, transient HEK293 G16g44, agonist Aristolochic Acid 25 nM; format: cell-based; conditions: HEK293, compound at 25 μM; receptor activated to EC80 with the corresponding agonist; read-out: screening result against bitter receptor 61
Procedure, shortened: (§1)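 Functional inhibition format: single hT2R transient expression in a G16g44-stable line, bitter agonist at EC80, test compound effect expressed as reduction in receptor activity.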

hT2R7 = hT2R7 (Homo sapiens (Human), UniProt Q9NYW3); assay: hT2R panel inhibition, transient HEK293 G16g44, agonist Chloroquine pH6.5 10 mM; format: cell-based; conditions: HEK293, compound at 25 μM; receptor activated to EC80 with the corresponding agonist; read-out: screening result against bitter receptor 7
Procedure, shortened: as §1

hT2R51 = hT2R51 (Homo sapiens (Human), UniProt P59533); assay: hT2R panel inhibition, transient HEK293 G16g44, agonist Prop 2.5 μM; format: cell-based; conditions: HEK293, compound at 25 μM; receptor activated to EC80 with the corresponding agonist; read-out: screening result against bitter receptor 51
Procedure, shortened: as §1

hT2R14 [1] = target: T1, hT2R14 (Homo sapiens (Human), UniProt Q9NYV8); assay: hT2R14 antagonist high-throughput FLIPR assay, stable cell line with G16g44, agonist aristolochic acid; format: cell-based; conditions: read-out: IC50 on hT2R14 bitter receptor
Procedure, shortened: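 Compounds were co-applied with 3 μM aristolochic acid, a dose set to reach 70-80% of maximal hT2R14 activation. Read-out was FLIPR fluorescence in a stable HEK293 line co-expressing hT2R14 and G16g44.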

hT2R13 = hT2R13 (Homo sapiens (Human), UniProt Q9NYV9); assay: hT2R panel inhibition, transient HEK293 G16g44, agonist Oxyphenonium 1 mM; format: cell-based; conditions: HEK293, compound at 25 μM; receptor activated to EC80 with the corresponding agonist; read-out: screening result against bitter receptor 13
Procedure, shortened: as §1

hT2R75 = hT2R75 (Homo sapiens (Human), UniProt P59540); assay: hT2R panel inhibition, transient HEK293 G16g44, agonist Strychnine 1 μM; format: cell-based; conditions: HEK293, read-out: screening result against bitter receptor 75, compound at 25 μM; receptor activated to EC80 with the corresponding agonist
hT2R16 = hT2R16 (Homo sapiens (Human), UniProt Q9NYV7); assay: hT2R panel inhibition, transient HEK293 G16g44, agonist Salicin 1 mM; format: cell-based; conditions: HEK293, compound at 25 μM; receptor activated to EC80 with the corresponding agonist; read-out: screening result against bitter receptor 16
Procedure, shortened: as §1

hT2R9 = hT2R9 (Homo sapiens (Human), UniProt Q9NYW1); assay: hT2R panel inhibition, transient HEK293 G16g44, agonist Ofloxacin 1 mM; format: cell-based; conditions: HEK293, compound at 25 μM; receptor activated to EC80 with the corresponding agonist; read-out: screening result against bitter receptor 9
Procedure, shortened: as §1

hT2R5 = hT2R5 (Homo sapiens (Human), UniProt Q9NYW4); assay: hT2R panel inhibition, transient HEK293 G16g44, agonist Picoline 10 mM; format: cell-based; conditions: HEK293, compound at 25 μM; receptor activated to EC80 with the corresponding agonist; read-out: screening result against bitter receptor 5
Procedure, shortened: as §1

hT2R8 [2] = target: T2, hT2R8 (Homo sapiens (Human), UniProt Q9NYW2); assay: hT2R panel inhibition, transient HEK293 G16g44, agonist Andrographolide 0.5 mM; format: cell-based; conditions: HEK293, compound at 25 μM; receptor activated to EC80 with the corresponding agonist; read-out: screening result against bitter receptor 8
Protocol: Specifically, in order to evaluate the inhibitory selectivity of the Compound C compound, this compound was tested against 22 human T2Rs which were deorphaned by Senomyx. These receptors and the bitter ligands that activate these human T2Rs are reported in earlier patent applications which are incorporated by reference herein. These 22 human T2Rs are hT2R1, 3, 4, 5, 7, 8, 9, 10, 13, 14, 16, 44, 51, 54, 55, 61, 63, 64, 65, 67, 71 and 75. The amino acid and nucleic acid sequences of all of these T2Rs may be found in these earlier patent applications. These human T2Rs were each individually transiently transfected into HEK293 cells that stably express the promiscuous G protein G16g44 and functional assays were effected using these receptors as disclosed in these same patent applications. […] The ligands were used at EC80 concentration levels. The list of bitter ligands utilized and the tested ligand concentrations are contained in Table 5 of this example.

hT2R4 = hT2R4 (Homo sapiens (Human), UniProt Q9NYW5); assay: hT2R panel inhibition, transient HEK293 G16g44, agonist Chloroquine pH6.5 5 mM; format: cell-based; conditions: HEK293, compound at 25 μM; receptor activated to EC80 with the corresponding agonist; class symbols; read-out: screening result against bitter receptor 4
Procedure, shortened: as §1

hT2R14 [3] = target: T1, hT2R14; assay: hT2R panel inhibition, transient HEK293 G16g44, agonist Aristolochic Acid 2 μM; format: cell-based; conditions: HEK293, compound at 25 μM; receptor activated to EC80 with the corresponding agonist; read-out: screening result against bitter receptor 14
Procedure, shortened: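 Agonist challenge was at EC80, with 0.5 mM andrographolide on hT2R8 and 2 μM aristolochic acid on hT2R14. Inhibition was measured in functional assays in HEK293 cells that stably carry the promiscuous G protein G16g44 and were transiently transfected with the individual receptor.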

[4] = system: bitter taste of instant coffee; assay: 2-alternative forced choice taste test, instant coffee with hT2R8 antagonists; format: in vivo, human; conditions: antagonist 5 μM
Protocol: Taste tests were performed with hT2R8 antagonists in instant coffee using a 2-alternative forced choice method with a taste panel of 15-20 panelists. Coffee samples with the antagonists were given to the taste panelists together with the same sample without antagonists, the panelists were asked to identify the bitterer sample within the pair.

hT2R8 [5] = target: T2, hT2R8; assay: hT2R8 antagonist high-throughput FLIPR assay, stable cell line with G16g44, agonist andrographolide; format: cell-based
Procedure, shortened: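 Antagonist screen: compounds co-applied with agonist andrographolide at 200 μM, a dose giving 70–80% of maximal hT2R8 activation. Fluorescence measured by FLIPR in a stable HEK293 line expressing both hT2R8 and the promiscuous G16g44 protein.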

[6] = system: bitterness of T2R8 specific agonist; assay: Taste test with T2R8 specific agonist comparing a control bitter blocker and compound of interest; format: in vivo, human; conditions: antagonist conc. 1
Protocol: To determine the effectiveness of an individual antagonist, taste tests were performed with a T2R8 specific agonist, the compound of interest and a reference bitter blocker. We have previously described a good hT2R8 antagonist that was proven to have taste effect, Example 4-8 from U.S. Provisional Appl. Ser. No. 60/957,129, filed Aug. 21, 2007: N-(1-((3,5-dimethylisoxazol-4-yl)methyl)-1H-pyrazol-4-yl)benzo[d][1,3]dioxole-5-carboxamide.

hT2R8 [7] = target: T2, hT2R8; conditions: compared with taster hT2R43-W35 and hT2R44-W35 alleles, FIG. 6
Description: FIG. 6 is a plot of receptor activity as a function of log of the saccharin concentration.
Pronin et al., Curr. Biol. 17: 1403-8 (2007). Five individuals with the “taster” alleles (hT2R43-W35 and/or hT2R44-W35) and five with the “non-taster” alleles (hT2R43-S35 and hT2R44-R35) were selected based on genotyping analysis. Each subject was presented with 6 pairs of solutions and asked to determine which of the samples in a pair tasted more bitter.

T2 sequence (Q9NYW2 whole entry): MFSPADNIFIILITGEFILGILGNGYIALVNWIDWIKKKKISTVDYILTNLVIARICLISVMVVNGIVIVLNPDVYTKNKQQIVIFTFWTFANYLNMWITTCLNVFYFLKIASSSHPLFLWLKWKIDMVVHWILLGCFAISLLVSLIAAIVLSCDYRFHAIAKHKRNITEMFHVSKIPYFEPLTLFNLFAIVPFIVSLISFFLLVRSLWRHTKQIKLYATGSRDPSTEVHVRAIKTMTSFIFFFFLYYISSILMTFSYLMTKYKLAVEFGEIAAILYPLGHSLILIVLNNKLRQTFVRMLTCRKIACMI
T1 sequence (Q9NYV8 whole entry): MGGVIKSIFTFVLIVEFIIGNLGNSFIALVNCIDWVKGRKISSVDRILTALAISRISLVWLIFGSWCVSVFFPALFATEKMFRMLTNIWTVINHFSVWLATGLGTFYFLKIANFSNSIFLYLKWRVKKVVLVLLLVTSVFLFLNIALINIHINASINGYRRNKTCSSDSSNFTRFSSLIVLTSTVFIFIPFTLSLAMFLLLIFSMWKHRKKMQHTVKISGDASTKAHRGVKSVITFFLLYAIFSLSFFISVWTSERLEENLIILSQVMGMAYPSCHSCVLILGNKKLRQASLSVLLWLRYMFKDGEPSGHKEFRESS
Chain of hT2R13 (Q9NYV9 whole entry): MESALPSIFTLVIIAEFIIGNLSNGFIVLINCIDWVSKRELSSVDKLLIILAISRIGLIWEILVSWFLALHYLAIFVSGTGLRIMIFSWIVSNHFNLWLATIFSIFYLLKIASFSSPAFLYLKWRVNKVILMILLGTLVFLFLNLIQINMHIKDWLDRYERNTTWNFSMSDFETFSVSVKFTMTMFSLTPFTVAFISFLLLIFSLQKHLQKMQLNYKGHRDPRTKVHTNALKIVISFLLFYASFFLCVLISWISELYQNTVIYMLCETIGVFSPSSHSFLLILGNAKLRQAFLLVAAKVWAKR
Chain of hT2R5 (Q9NYW4 whole entry): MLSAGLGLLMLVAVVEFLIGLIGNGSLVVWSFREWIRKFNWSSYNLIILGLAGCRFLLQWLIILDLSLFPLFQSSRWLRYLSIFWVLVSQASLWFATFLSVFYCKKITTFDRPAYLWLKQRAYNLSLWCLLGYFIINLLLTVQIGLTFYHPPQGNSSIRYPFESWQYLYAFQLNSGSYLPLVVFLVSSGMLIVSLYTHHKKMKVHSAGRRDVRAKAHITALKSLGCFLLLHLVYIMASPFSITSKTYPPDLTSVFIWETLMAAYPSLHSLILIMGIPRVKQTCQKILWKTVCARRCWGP
Chain of hT2R7 (Q9NYW3 whole entry): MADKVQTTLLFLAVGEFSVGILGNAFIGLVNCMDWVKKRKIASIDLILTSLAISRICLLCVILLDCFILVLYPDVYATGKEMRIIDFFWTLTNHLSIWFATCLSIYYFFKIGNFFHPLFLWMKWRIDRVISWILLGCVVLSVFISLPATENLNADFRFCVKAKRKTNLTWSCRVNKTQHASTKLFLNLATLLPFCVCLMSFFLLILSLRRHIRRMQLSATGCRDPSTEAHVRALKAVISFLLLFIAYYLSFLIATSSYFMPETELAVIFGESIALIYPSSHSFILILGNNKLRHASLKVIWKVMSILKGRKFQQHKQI
Chain of hT2R61 (P59537 whole entry): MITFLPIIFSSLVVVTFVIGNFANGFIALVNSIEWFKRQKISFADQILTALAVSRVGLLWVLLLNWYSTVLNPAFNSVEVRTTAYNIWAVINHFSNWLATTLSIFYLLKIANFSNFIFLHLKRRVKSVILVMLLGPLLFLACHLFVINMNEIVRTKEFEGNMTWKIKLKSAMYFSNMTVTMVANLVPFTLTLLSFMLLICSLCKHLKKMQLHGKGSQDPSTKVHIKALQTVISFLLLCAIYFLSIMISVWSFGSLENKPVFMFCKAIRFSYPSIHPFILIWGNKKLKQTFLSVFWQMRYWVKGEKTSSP
Chain of hT2R75 (P59540 whole entry): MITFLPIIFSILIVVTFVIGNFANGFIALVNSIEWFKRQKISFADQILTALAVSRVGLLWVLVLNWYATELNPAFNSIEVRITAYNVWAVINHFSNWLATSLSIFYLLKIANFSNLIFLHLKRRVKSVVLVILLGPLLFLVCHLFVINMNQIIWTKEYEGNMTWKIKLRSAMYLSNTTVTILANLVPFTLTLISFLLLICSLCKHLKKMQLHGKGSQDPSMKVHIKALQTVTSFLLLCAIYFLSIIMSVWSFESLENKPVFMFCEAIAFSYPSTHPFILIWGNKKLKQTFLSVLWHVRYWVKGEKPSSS
Chain of hT2R51 (P59533 whole entry): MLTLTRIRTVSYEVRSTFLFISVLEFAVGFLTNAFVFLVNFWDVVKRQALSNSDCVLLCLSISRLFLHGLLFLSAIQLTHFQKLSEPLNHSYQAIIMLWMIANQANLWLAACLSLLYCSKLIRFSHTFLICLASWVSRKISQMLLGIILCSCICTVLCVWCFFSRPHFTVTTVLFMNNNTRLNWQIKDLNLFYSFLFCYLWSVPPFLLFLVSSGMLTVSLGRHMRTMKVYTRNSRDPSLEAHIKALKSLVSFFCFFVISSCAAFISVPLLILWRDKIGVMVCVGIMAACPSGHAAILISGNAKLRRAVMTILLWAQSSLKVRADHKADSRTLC
Chain of hT2R4 (Q9NYW5 whole entry): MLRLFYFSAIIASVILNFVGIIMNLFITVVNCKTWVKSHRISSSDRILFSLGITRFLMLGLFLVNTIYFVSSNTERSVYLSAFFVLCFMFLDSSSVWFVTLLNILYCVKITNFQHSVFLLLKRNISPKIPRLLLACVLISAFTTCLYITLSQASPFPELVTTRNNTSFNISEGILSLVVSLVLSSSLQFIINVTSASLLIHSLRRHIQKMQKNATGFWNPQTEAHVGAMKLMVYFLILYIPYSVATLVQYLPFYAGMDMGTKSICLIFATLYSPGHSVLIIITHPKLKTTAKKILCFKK
Chain of hT2R16 (Q9NYV7 whole entry): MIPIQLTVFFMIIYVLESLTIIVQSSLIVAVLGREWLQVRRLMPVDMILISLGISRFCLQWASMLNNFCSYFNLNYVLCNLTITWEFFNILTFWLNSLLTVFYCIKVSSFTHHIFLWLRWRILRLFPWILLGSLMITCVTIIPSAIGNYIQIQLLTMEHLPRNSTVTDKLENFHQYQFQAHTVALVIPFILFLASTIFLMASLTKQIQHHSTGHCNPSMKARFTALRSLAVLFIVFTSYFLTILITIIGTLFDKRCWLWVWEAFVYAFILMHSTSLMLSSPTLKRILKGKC
Chain of hT2R9 (Q9NYW1 whole entry): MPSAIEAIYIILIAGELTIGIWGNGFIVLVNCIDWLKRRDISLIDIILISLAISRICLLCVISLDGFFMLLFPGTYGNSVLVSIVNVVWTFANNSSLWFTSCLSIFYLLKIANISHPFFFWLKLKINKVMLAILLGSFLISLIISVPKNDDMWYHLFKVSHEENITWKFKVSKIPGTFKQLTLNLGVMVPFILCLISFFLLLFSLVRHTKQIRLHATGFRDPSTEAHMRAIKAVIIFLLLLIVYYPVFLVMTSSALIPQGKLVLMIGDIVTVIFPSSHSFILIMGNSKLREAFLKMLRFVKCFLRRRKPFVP

COc1ccc(CN(Cc2ccccc2)S(=O)(=O)c2ccc(C(=O)O)cc2)cc1 [Example 5-1, 4-(N-benzyl-N-(4-methoxybenzyl)sulfamoyl)benzoic acid]
inhibition at 25 µM (hT2R61): > 80%
inhibition at 25 µM (hT2R7): 40 to 60%
inhibition at 25 µM (hT2R51): 60 to 80%
IC50 (hT2R14 [1]): 220 nM
inhibition at 25 µM (hT2R13): 20 to 40%
inhibition at 25 µM (hT2R75): 20 to 40%
inhibition at 25 µM (hT2R16): 40 to 60%
inhibition at 25 µM (hT2R9): 20 to 40%
melting point: 161 to 163 °C
inhibition at 25 µM (hT2R5): 20 to 40%
inhibition at 25 µM (hT2R8 [2]): 20 to 40%
inhibition at 25 µM (hT2R4): 20 to 40%
inhibition at 25 µM (hT2R14 [3]): > 80%

Cc1noc(C)c1Cn1cc(N2C(=O)CN(Cc3cccc(O)c3)C2=O)cn1 [Example 10-10, 3-(1-((3,5-dimethylisoxazol-4-yl)methyl)-1H-pyrazol-4-yl)-1-(3-hydroxybenzyl)imidazolidine-2,4-dione]
Selected as bitterer: With antagonists [4]: 2
Selected as bitterer: Without antagonists [4]: 14
IC50 (hT2R8 [5]; Table 6, read-out: HTS assay IC50): 0.02 to 0.04 µM
IC50 (hT2R8 [5]; table after Example 10-97, read-out: hT2R8 IC50): 0.026 µM
IC50 (hT2R8 [5]; unit uM, read-out: IC50 on hT2R08 bitter receptor): 0.035 µM
Selected as more bitter: +other ([6]; sample with 10-10): 2
Selected as more bitter: 10-8 ([6]; sample with control blocker 10-8): 14

O=C1NS(=O)(=O)c2ccccc21 [saccharin]
responsiveness of hT2R8 to saccharin (hT2R8 [7]): less responsive
